Reference: patent publication US20080051379A1, “Compositions and Methods for the Treatment of Peripheral B-Cell Neoplasms” (Trustees of Boston University, priority 2004, published 2008)

Assays:
[1] = tested on: glucocorticoid-sensitive subclone (CEM-S2); assay: MTS cell survival assay, CEM-S2; assay type: cell-based, human; conditions: 72 hours
Experimental: (§1) In FIG. 5A, the polyclonal parental cell line (CCRF-CEM), the single cell-derived glucocorticoid-resistant subclone (CEM-R8) and the single cell-derived glucocorticoid-sensitive subclone (CEM-S2) were cultured for 72 hours in the presence of vehicle (ETOH) or dexamethasone at the concentrations indicated and cell viability was assessed by the MTS assay as described in Methods. In FIG. 5B, the glucocorticoid-resistant subclone (CEM-R8) and the glucocorticoid-sensitive subclone (CEM-S2) were cultured for 72 hours in the presence of hydrocortisone (HC) (10 μM HC for the CEM-R8 cells and 1 μM HC for the CEM-S2 cells), 10 μM forskolin (Fsk), 10 μM rolipram (Rol), or combinations of these agents as indicated, and cell viability was assessed by the MTS assay as described in Methods. FIG. 5C: The glucocorticoid-resistant subclone (CEM-R8) and the glucocorticoid-sensitive subclone (CEM-S2) were cultured for 72 hours in the presence of varying amounts of dibutyryl cAMP (db-cAMP) in the absence (−HC) or presence (+HC) of 1 μM hydrocortisone as indicated, and cell viability was assessed by the MTS assay as described in Methods. The data shown were normalized to the vehicle control. Results represent the mean±SD of triplicate determinations.
(§2) CCRF-CEM cells were obtained from ATCC^27. Leukemic or normal mononuclear cells were obtained by centrifugation over Histopaque 1077 (Sigma Chemical Company, St. Louis, Mo.). For purification of T cells, whole mononuclear cells from normal subjects were incubated with magnetic beads coated with appropriate antibodies, then positively purified using a magnet (Miltenyi). […]
(§3) Hoechst 33342 and DiOC6(3) apoptosis assays were performed as previously described^22,28. […] The absorbance (O.D.) of the formazan product was determined at 492 nm using a plate reader (Titertek Multiscan Plus, Labsystems). Percent cell viability was calculated as follows: (O.D. control sample−O.D. blank)/(O.D. test sample−O.D. blank)×100. […]

[2] = tested on: glucocorticoid-resistant subclone (CEM-R8); assay: MTS cell survival assay, CEM-R8; assay type: cell-based, human; conditions: dexamethasone-resistant CCRF-CEM cells; dbcAMP dose response, 72 hours
Experimental: as §1, with “The data shown were normalized to the vehicle control. Results represent the mean±SD of triplicate determinations.” left out
(§4) Hoechst 33342 and DiOC6(3) apoptosis assays were performed as previously described^22,28. […] The absorbance (O.D.) of the formazan product was determined at 492 nm using a plate reader (Titertek Multiscan Plus, Labsystems). […]

PDE4 = conditions: cited from earlier work
B-CLL cells [3] = assay: Hoechst 33342 apoptosis assay, B-CLL cells; assay type: cell-based, human; conditions: for augmentation of hydrocortisone-induced apoptosis: 10 μM PDE inhibitor + 1 μM hydrocortisone; for apoptosis by Hoechst 33342 analysis: 48 hrs culture, Roli 10 μM, HC 1 μM
Experimental: FIGS. 1A-D show the effects of the cyclic nucleotide phosphodiesterase inhibitors rolipram, RO20-1724 and cilostamide on hydrocortisone and dexamethasone-induced apoptosis in B-CLL. In FIG. 1A, leukemic cells from 11 B-CLL patients were assessed for apoptosis by […] analysis after 48 hrs culture in media alone (No treatment), 10 μM rolipram (Roli), 1 μM hydrocortisone (HC) or a combination of the two drugs (Roli+HC). In FIGS. 1B and 1C, leukemic cells from five patients with B-CLL were cultured in media alone or with a dose titration of hydrocortisone (1B: solid line) or dexamethasone (1C: solid line), followed by assessment for apoptosis by Hoechst 33342 FACS analysis at 48 hours. Using the same experimental conditions, the effect of addition of 10 μM rolipram (thick dashed line) to the glucocorticoids was also assessed. In FIG. 1D, the apoptotic effects of the PDE4 inhibitor RO20-1724 (RO20) (10 μM) or the PDE3 inhibitor cilostamide (Cilost) (10 μM) were assessed on B-CLL cells when combined with 1 μM hydrocortisone. Data represent the mean±SEM of triplicate samples.
Blood samples were obtained by IRB-approved consent from flow cytometry-confirmed B-CLL patients that were either untreated or for whom at least one month had elapsed since chemotherapy. Patients with active infections or other serious medical conditions were not included in this study.
CCRF-CEM cells were obtained from ATCC^27. Leukemic or normal mononuclear cells were obtained by centrifugation over Histopaque 1077 (Sigma Chemical Company, St. Louis, Mo.). For purification of T cells, whole mononuclear cells from normal subjects were incubated with magnetic beads coated with appropriate antibodies, then positively purified using a magnet (Miltenyi). Cells were cultured in RPMI 1640 media (Biowhittaker, Walkersville, Md.) supplemented with 10% fetal calf serum, 50 μMol/L 2-mercaptoethanol, 2 mMol/L L-glutamine, 10 mM Hepes pH 7.4, […] (Sigma Chemical Company, St. Louis, Mo.). For isolation of glucocorticoid resistant clones, parental CCRF-CEM cells were treated with 1 μM dexamethasone for 10 days, and surviving cells diluted to ≦one cell/well in a 96-well flat-bottom tissue culture plate, grown for three weeks in media supplemented with 20% fetal calf serum and 1% insulin-transferrin-selenium (GIBCO), and then transferred to regular growth medium. […] For isolation of glucocorticoid-sensitive clones, the same procedure was used, except that treatment with dexamethasone was omitted. A glucocorticoid-sensitive subclone (CEM-S2) was inhibited in its survival by dexamethasone with an IC50=0.007 μM.
Hoechst 33342 and DiOC6(3) apoptosis assays were performed as previously described^22,28. For CCRF-CEM cell survival assays, cells were plated at a density of 3×10^4/well in 96-well flat-bottom plates in the presence of test reagents or vehicle in 0.1 mL media. Following incubation for 72 hrs, 20 μl of a 20:1 MTS (2 mg/mL)/PMS (0.92 mg/ml) solution was added to each well, and the plates incubated for 2 hrs at 37°. The absorbance (O.D.) of the formazan product was determined at 492 nm using a plate reader (Titertek Multiscan Plus, Labsystems). Percent cell viability was calculated as follows: (O.D. control sample−O.D. blank)/(O.D. test sample−O.D. blank)×100. All assays were performed in triplicate.

CCRF-CEM cells = assay: MTS cell survival assay, CCRF-CEM cells; assay type: cell-based, human; conditions: 72 hours
Experimental: as §1, with “The data shown were normalized to the vehicle control. Results represent the mean±SD of triplicate determinations.” left out
as §4

CD3+ CD4+ Sezary cells = assay: Hoechst 33342 apoptosis assay, Sezary cells; assay type: cell-based, human; conditions: 10 μM rolipram or 1 μM hydrocortisone; one patient
Experimental: Magnetic bead purified peripheral blood T cells or leukemic cells from patients with B-CLL or Sezary syndrome were cultured in media alone or with a dose titration of hydrocortisone (solid line), followed by assessment for apoptosis by Hoechst 33342 FACS analysis at 48 hours. Using the same experimental conditions, the effect of addition of 10 μM rolipram (thick dashed line) or 10 μM rolipram and 40 μM forskolin (dotted line) was also assessed. The SEM of triplicate samples is shown; where not visible, the SEM was less than 1.0%.
as §2, §3

[4] = tested on: GRE luciferase constructs transiently transfected into B-CLL cells; assay: GRE luciferase transactivation in B-CLL cells; assay type: cell-based, human; conditions: 1 mM Rp-8Br-cAMPS; 8 B-CLL samples; p<0.02
Experimental: B-CLL cells (FIG. 3A) or CCRF-CEM cells (FIG. 3B) were transiently transfected with a luciferase construct in which expression is regulated by GRE elements, followed by culture in 10 μM rolipram (R), 40 μM forskolin (Fsk), 1 μM hydrocortisone (HC), 1 mM Rp-8Br-cAMPS (Rp-8Br) or combinations of these agents. 12 hours after addition of the drugs, the relative luminescence of the samples was determined. The data shown are the mean of 8 experiments for B-CLL and two experiments for CCRF-CEM cells. The single asterisk denote a significant difference by paired student's t test between HC alone and either R/HC (FIG. 3A) or F/HC (FIG. 3B) (p<0.02). The double asterisk denotes a significant difference between Rp-8Br-cAMPS/HC and HC alone (p<0.02).
An MMTV GRE luciferase construct, originally created by Dr. R. Evans, was a gift from Dr. Remco Spanjaard (Dept. of Otolaryngology, Boston Medical Center)^29. 100 million B CLL cells in 200 μl of PBS were added to 500 μl of Nucleofector Solution D containing 30 μg of endotoxin-free (Qiagen) MMTV luciferase constructs. 100 μl was used per transfection using a Nucleofector electroporation instrument (Amaxa Biosystems, Koeln, Germany) using program U16. […] Up to six such aliquots of transfected cells were diluted in media and pooled, prior to distribution of 8 million cells/well in 48 well plates. Two hours after transfection, drugs, cytokines or vehicle alone were added to the transfected cells. 14 hours after transfection, samples were processed using a luciferase assay kit (Promega). Triplicate samples were analyzed with an MGM Instruments Optocomp I luminometer (Hamden, Conn.). Analysis of cell viability (trypan blue exclusion) and total protein (Pierce) verified that equivalent numbers of viable B-CLL cells were analyzed. 100 million CCRF-CEM cells were similarly transfected, cultured and analyzed except that Nucleofector program O17 was utilized. […] Data were analyzed using a two-sided paired t test for means.

B-CLL cells [5] = assay: Hoechst 33342 apoptosis assay, B-CLL cells; assay type: cell-based, human; conditions: 1 mM Rp-8Br-cAMPS + 1 μM hydrocortisone, 48 hours; six B-CLL patients
PDE1 enzymes = conditions: cited from earlier work

CCCC(=O)Nc1ncnc2c1ncn2[C@@H]1O[C@@H]2COP(=O)(O)O[C@H]2[C@H]1OC(=O)CCC [dbcAMP, dibutyryl cAMP]
apoptotic effect combined with 1 μM hydrocortisone ([1]; dexamethasone-sensitive CCRF-CEM cells, dbcAMP dose response): marked synergy | apoptotic effect combined with 1 μM hydrocortisone [2]: marked synergy

CCCCOc1cc(CC2CNC(=O)N2)ccc1OC (centres unmarked) [RO20-1724, 4-(3-Butoxy-4-methoxybenzyl)-2-imidazolidinone]
IC50 (PDE4): 2000 nM | augmentation of hydrocortisone-induced apoptosis (B-CLL cells [3]; five B-CLL patients): augmented hydrocortisone-induced apoptosis

C=C[C@@]1(C)CC(=O)[C@@H]2[C@@]3(C)CCCC(C)(C)[C@@H]3[C@H](O)[C@H](OC(C)=O)[C@@]2(C)O1 [1,9 dideoxyforskolin]
augmentation of glucocorticoid sensitivity (CCRF-CEM cells): failed to augment glucocorticoid sensitivity

C[C@]12CCC(=O)C=C1CC[C@@H]1[C@@H]2[C@@H](O)C[C@@]2(C)[C@H]1CC[C@]2(O)C(=O)CO [hydrocortisone]
apoptosis by Hoechst 33342 analysis (B-CLL cells [3]; B-CLL patient #1, No Rx 10): 19% | apoptosis by Hoechst 33342 analysis (B-CLL cells [3]; B-CLL patient #2, No Rx 11): 16% | apoptosis by Hoechst 33342 analysis (B-CLL cells [3]; B-CLL patient #3, No Rx 13): 41% | apoptosis by Hoechst 33342 analysis (B-CLL cells [3]; B-CLL patient #4, No Rx 23): 42% | apoptosis by Hoechst 33342 analysis (B-CLL cells [3]; B-CLL patient #5, No Rx 25): 43% | apoptosis by Hoechst 33342 analysis (B-CLL cells [3]; B-CLL patient #6, No Rx 27): 33% | apoptosis by Hoechst 33342 analysis (B-CLL cells [3]; B-CLL patient #7, No Rx 31): 47% | apoptosis by Hoechst 33342 analysis (B-CLL cells [3]; B-CLL patient #8, No Rx 33): 60% | apoptosis by Hoechst 33342 analysis (B-CLL cells [3]; B-CLL patient #9, No Rx 35): 71% | apoptosis by Hoechst 33342 analysis (B-CLL cells [3]; B-CLL patient #10, No Rx 44): 75% | apoptosis by Hoechst 33342 analysis (B-CLL cells [3]; B-CLL patient #11, No Rx 61): 73% | apoptotic effect used separately on Sezary leukemic cells (CD3+ CD4+ Sezary cells): little effect

CN(C(=O)CCCOc1ccc2[nH]c(=O)ccc2c1)C1CCCCC1 [cilostamide]
augmentation of hydrocortisone-induced apoptosis (B-CLL cells [3]; five B-CLL patients): nor augmented hydrocortisone-induced apoptosis | induction of apoptosis by itself (B-CLL cells [3]; 10 μM, five B-CLL patients): neither induced apoptosis by itself

Nc1ncnc2c1nc(Br)n2C1OC2COP(O)(=S)OC2C1O (centres unmarked) [Rp-8Br-cAMPS, (Rp)-8-Br-cAMPS]
reduction of hydrocortisone-induced transactivation [4]: 83% | inhibition of hydrocortisone-induced apoptosis (B-CLL cells [5]): 86±14%

C[C@@H]1C[C@H]2[C@@H]3CCC4=CC(=O)C=C[C@]4(C)[C@@]3(F)[C@@H](O)C[C@]2(C)[C@@]1(O)C(=O)CO [dexamethasone]
IC50 ([1]; Homo sapiens, CEM-S2 subclone, read-out: IC50, inhibition of survival): 7 nM

CCOC(=O)C1=C[C@]2(CC)CCCN3CCc4c(n1c1ccccc41)[C@@H]32 [vinpocetine]
IC50 (PDE1 enzymes): 21000 nM
